Measured values: paper PMC6681697, “One-Step ^18F-Labeling and Preclinical Evaluation of Prostate-Specific Membrane Antigen Trifluoroborate Probes for Cancer Imaging” (Journal of Nuclear Medicine, 2019)
Values belong to the molecule of their own block, whether it stands above or below them.

Experiments:
PSMA = target: T1, PSMA (Homo sapiens, UniProt Q04609); assay: In vitro competition binding assay on LNCaP cells with ^18F-DCFPyL as radioligand
T1 construct: because it expresses PSMA endogenously and is commonly used to evaluate PSMA-targeting radiotracers; endogenous in cells; host or cells: LNCaP cells
Protocol: LNCaP cells were plated onto a 24-well poly-D-lysine coated plate for 48 h (400,000/well). […] Nonspecific binding was determined in the presence of 10 μM unlabeled DCFPyL. The assay mixtures were incubated for 1 h at 37°C with gentle agitation followed by 2 washes with cold HEPES buffered saline. A trypsin solution (0.25%, 400 μL) was then added to each well to harvest the cells. Radioactivity was measured by γ-counting, and Ki values were calculated using the “1 site—fit Ki” built-in model in Prism 7 (GraphPad).

LNCaP xenografts = assay: Ex vivo biodistribution and blocking studies in mice bearing LNCaP xenografts; settings: for tumor uptake: LNCaP tumor
Protocol: Imaging and biodistribution experiments were performed using NODSCID IL2RγKO male mice. All experiments were conducted according to the guidelines established by the Canadian Council on Animal Care and approved by the Animal Ethics Committee of the University of British Columbia. Mice were anesthetized by inhalation with 2% isoflurane in oxygen and implanted subcutaneously with 1 × 10^7 LNCaP cells behind the left shoulder. The mice were imaged or used in biodistribution studies once the tumor reached 5–8 mm in diameter (5–6 wk).
For biodistribution and blocking studies, the mice were injected with 1–3 MBq of radiotracer. At 60 min, the mice were anesthetized with 2% isoflurane inhalation and euthanized by CO2 inhalation. Blood was withdrawn by cardiac puncture, and the organs and tissues of interest were collected, weighed, and counted using an automatic γ-counter (PerkinElmer). Uptake values were expressed as the percentage of the injected dose per gram of tissue (%ID/g).
A standard 1-way ANOVA was performed to determine whether statistically significant differences in tumor uptake occurred between radiotracers. Each radiotracer was compared with ^18F-DCFPyL using the Dunnett test (a many-to-one t test comparison). This analysis was also performed for kidney and blood activity and for tumor-to-blood and tumor-to-muscle ratios. Reported P values were adjusted for multiple comparisons. The analysis was performed using Prism 8 (GraphPad). […]
Statistical analyses were performed using GradPad prism 7. Multiple t tests were performed to compare biodistribution in unblocked and blocked mice, multiple comparisons were corrected using the Holm-Sidak method. The difference was considered statistically significant when p value was < 0.05.
Supplemental Table 1 – Complete biodistribution study for compounds [18F]1–3 […]
Tissue 1h 1h blocked 1h 1h blocked 1h 1h blocked
(%ID/g) n = 8 n = 4 n = 6 n = 4 n = 8 n = 5 […]
(1 picture or pasted object on this page, not shown here)

[1] = Distribution coefficient (LogD7.4), shake flask method; assay type: physicochemical; settings: n-octanol / phosphate buffer 0.1 M pH 7.4; n = 3
Protocol: LogD7.4 values were measured using the shake flask method. Briefly, an aliquot of ^18F-labeled tracer was added to a vial containing 2.5 mL of n-octanol and 2.5 mL of phosphate buffer (0.1 M, pH 7.4). The mixture was vortexed for 2 min and then centrifuged at 3,000g for 10 min. A sample of the n-octanol (0.1 mL) and buffer (0.1 mL) layers was counted using a γ-counter. Values of LogD7.4 were calculated using the following equation: LogD7.4 = log10 [(counts in n-octanol phase)/(counts in buffer phase)].

[2] = 1 h after injection, 1-way ANOVA, Dunnett test
[3] = 1 h blocked (coinjection of DCFPyL 0.5 mg)

T1 sequence (Q04609 whole entry): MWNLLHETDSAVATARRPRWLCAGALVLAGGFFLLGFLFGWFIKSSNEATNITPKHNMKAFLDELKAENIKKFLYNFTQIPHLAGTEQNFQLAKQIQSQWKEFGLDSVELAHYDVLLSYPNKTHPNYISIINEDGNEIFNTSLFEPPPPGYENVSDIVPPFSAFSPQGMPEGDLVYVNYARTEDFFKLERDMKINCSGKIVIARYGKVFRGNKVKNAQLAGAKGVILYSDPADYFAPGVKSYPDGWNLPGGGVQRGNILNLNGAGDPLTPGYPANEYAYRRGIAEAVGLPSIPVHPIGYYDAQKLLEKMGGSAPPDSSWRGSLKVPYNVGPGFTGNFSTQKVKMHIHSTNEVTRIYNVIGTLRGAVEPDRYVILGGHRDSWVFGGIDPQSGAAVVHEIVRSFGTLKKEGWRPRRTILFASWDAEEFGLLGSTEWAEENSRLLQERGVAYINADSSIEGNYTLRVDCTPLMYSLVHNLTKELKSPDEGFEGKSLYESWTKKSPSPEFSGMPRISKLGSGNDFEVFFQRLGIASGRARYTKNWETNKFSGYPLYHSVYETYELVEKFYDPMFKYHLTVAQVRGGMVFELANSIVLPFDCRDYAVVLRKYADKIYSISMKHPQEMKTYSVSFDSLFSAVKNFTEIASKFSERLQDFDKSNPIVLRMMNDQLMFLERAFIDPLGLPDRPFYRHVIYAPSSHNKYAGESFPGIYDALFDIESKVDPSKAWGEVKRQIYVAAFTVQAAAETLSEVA

Ki (PSMA): 25.9 ± 5.7 nM
T/B (tumor-to-blood ratio) (LNCaP xenografts; 1 h after injection, unblocked): 9.68 ± 4.53
T/K (tumor-to-kidney ratio) (LNCaP xenografts; 1 h after injection, unblocked): 0.11 ± 0.08
T/M (tumor-to-muscle ratio) (LNCaP xenografts; 1 h after injection, unblocked): 29.00 ± 12.40
adrenal uptake (LNCaP xenografts; 1 h after injection, unblocked): 1.35 ± 0.52 %ID/g
blood uptake (LNCaP xenografts; 1 h after injection, unblocked): 0.50 ± 0.16 %ID/g
bone uptake (LNCaP xenografts; 1 h after injection, unblocked): 0.20 ± 0.06 %ID/g
brain uptake (LNCaP xenografts; 1 h after injection, unblocked): 0.03 ± 0.01 %ID/g
fat uptake (LNCaP xenografts; 1 h after injection, unblocked): 0.35 ± 0.15 %ID/g
heart uptake (LNCaP xenografts; 1 h after injection, unblocked): 0.19 ± 0.07 %ID/g
intestine uptake (LNCaP xenografts; 1 h after injection, unblocked): 0.28 ± 0.07 %ID/g
kidney uptake (LNCaP xenografts; 1 h after injection, unblocked): 51.80 ± 24.10 %ID/g
liver uptake (LNCaP xenografts; 1 h after injection, unblocked): 1.17 ± 0.28 %ID/g
lung uptake (LNCaP xenografts; 1 h after injection, unblocked): 0.66 ± 0.19 %ID/g
muscle uptake (LNCaP xenografts; 1 h after injection, unblocked): 0.17 ± 0.07 %ID/g
pancreas uptake (LNCaP xenografts; 1 h after injection, unblocked): 0.27 ± 0.13 %ID/g
spleen uptake (LNCaP xenografts; 1 h after injection, unblocked): 0.84 ± 0.52 %ID/g
stomach uptake (LNCaP xenografts; 1 h after injection, unblocked): 0.08 ± 0.04 %ID/g
testes uptake (LNCaP xenografts; 1 h after injection, unblocked): 0.30 ± 0.09 %ID/g
kidney accumulation compared with ^18F-DCFPyL (LNCaP xenografts; [2]): lower kidney accumulation
tumor uptake compared with ^18F-DCFPyL (LNCaP xenografts; [2]): lower tumor uptake than ^18F-DCFPyL
T/B (tumor-to-blood ratio) (LNCaP xenografts; [3]): 1.17 ± 0.70
T/K (tumor-to-kidney ratio) (LNCaP xenografts; [3]): 0.16 ± 0.05
T/M (tumor-to-muscle ratio) (LNCaP xenografts; [3]): 3.54 ± 1.43
adrenal uptake (LNCaP xenografts; [3]): 0.24 ± 0.07 %ID/g
blood uptake (LNCaP xenografts; [3]): 0.30 ± 0.10 %ID/g
bone uptake (LNCaP xenografts; [3]): 0.16 ± 0.06 %ID/g
brain uptake (LNCaP xenografts; [3]): 0.02 ± 0.00 %ID/g
fat uptake (LNCaP xenografts; [3]): 0.16 ± 0.10 %ID/g
heart uptake (LNCaP xenografts; [3]): 0.12 ± 0.06 %ID/g
intestine uptake (LNCaP xenografts; [3]): 0.23 ± 0.06 %ID/g
kidney uptake (LNCaP xenografts; [3]): 2.12 ± 0.73 %ID/g
liver uptake (LNCaP xenografts; [3]): 1.25 ± 0.17 %ID/g
lung uptake (LNCaP xenografts; [3]): 0.30 ± 0.11 %ID/g
muscle uptake (LNCaP xenografts; [3]): 0.09 ± 0.03 %ID/g
pancreas uptake (LNCaP xenografts; [3]): 0.08 ± 0.03 %ID/g
spleen uptake (LNCaP xenografts; [3]): 0.09 ± 0.05 %ID/g
stomach uptake (LNCaP xenografts; [3]): 0.06 ± 0.02 %ID/g
testes uptake (LNCaP xenografts; [3]): 0.10 ± 0.03 %ID/g
tumor uptake (LNCaP xenografts; 1 h after injection, unblocked, listed as 3): 4.4 ± 0.95 %ID/g
tumor uptake (LNCaP xenografts; 1 h after injection, unblocked, listed as [18F]3): 4.36 ± 0.95 %ID/g
tumor uptake (LNCaP xenografts; [3]): 0.35 ± 0.21 %ID/g
logD at 2 min [1]: -4.01 ± 0.14
SMILES: C[N+](C)(Cc1cn(Cc2ccc(C(=O)NCCCC[C@H](NC(=O)N[C@@H](CCC(=O)O)C(=O)O)C(=O)O)cn2)nn1)C[B-](F)(F)F [^18F-3]

Ki (PSMA): 27.6 ± 3.8 nM
T/B (tumor-to-blood ratio) (LNCaP xenografts; 1 h after injection, unblocked): 8.70 ± 1.74
T/K (tumor-to-kidney ratio) (LNCaP xenografts; 1 h after injection, unblocked): 0.04 ± 0.02
T/M (tumor-to-muscle ratio) (LNCaP xenografts; 1 h after injection, unblocked): 23.40 ± 5.00
adrenal uptake (LNCaP xenografts; 1 h after injection, unblocked): 6.66 ± 2.33 %ID/g
blood uptake (LNCaP xenografts; 1 h after injection, unblocked): 0.74 ± 0.15 %ID/g
bone uptake (LNCaP xenografts; 1 h after injection, unblocked): 0.76 ± 0.57 %ID/g
brain uptake (LNCaP xenografts; 1 h after injection, unblocked): 0.05 ± 0.01 %ID/g
fat uptake (LNCaP xenografts; 1 h after injection, unblocked): 1.05 ± 0.49 %ID/g
heart uptake (LNCaP xenografts; 1 h after injection, unblocked): 0.34 ± 0.08 %ID/g
intestine uptake (LNCaP xenografts; 1 h after injection, unblocked): 0.48 ± 0.22 %ID/g
kidney uptake (LNCaP xenografts; 1 h after injection, unblocked): 164.33 ± 50.20 %ID/g
liver uptake (LNCaP xenografts; 1 h after injection, unblocked): 1.28 ± 0.18 %ID/g
lung uptake (LNCaP xenografts; 1 h after injection, unblocked): 1.67 ± 0.47 %ID/g
muscle uptake (LNCaP xenografts; 1 h after injection, unblocked): 0.28 ± 0.07 %ID/g
pancreas uptake (LNCaP xenografts; 1 h after injection, unblocked): 0.68 ± 0.50 %ID/g
spleen uptake (LNCaP xenografts; 1 h after injection, unblocked): 3.36 ± 1.08 %ID/g
stomach uptake (LNCaP xenografts; 1 h after injection, unblocked): 0.15 ± 0.03 %ID/g
testes uptake (LNCaP xenografts; 1 h after injection, unblocked): 0.67 ± 0.27 %ID/g
tumor uptake compared with ^18F-DCFPyL (LNCaP xenografts; [2]): lower tumor uptake than ^18F-DCFPyL
T/B (tumor-to-blood ratio) (LNCaP xenografts; [3]): 0.75 ± 0.18
T/K (tumor-to-kidney ratio) (LNCaP xenografts; [3]): 0.11 ± 0.03
T/M (tumor-to-muscle ratio) (LNCaP xenografts; [3]): 1.91 ± 0.46
adrenal uptake (LNCaP xenografts; [3]): 0.26 ± 0.15 %ID/g
blood uptake (LNCaP xenografts; [3]): 0.24 ± 0.11 %ID/g
bone uptake (LNCaP xenografts; [3]): 0.56 ± 0.20 %ID/g
brain uptake (LNCaP xenografts; [3]): 0.02 ± 0.01 %ID/g
fat uptake (LNCaP xenografts; [3]): 0.04 ± 0.03 %ID/g
heart uptake (LNCaP xenografts; [3]): 0.09 ± 0.04 %ID/g
intestine uptake (LNCaP xenografts; [3]): 0.18 ± 0.04 %ID/g
kidney uptake (LNCaP xenografts; [3]): 1.62 ± 0.73 %ID/g
liver uptake (LNCaP xenografts; [3]): 0.90 ± 0.25 %ID/g
lung uptake (LNCaP xenografts; [3]): 0.19 ± 0.09 %ID/g
muscle uptake (LNCaP xenografts; [3]): 0.11 ± 0.08 %ID/g
pancreas uptake (LNCaP xenografts; [3]): 0.08 ± 0.03 %ID/g
spleen uptake (LNCaP xenografts; [3]): 0.13 ± 0.06 %ID/g
stomach uptake (LNCaP xenografts; [3]): 0.06 ± 0.02 %ID/g
testes uptake (LNCaP xenografts; [3]): 0.08 ± 0.03 %ID/g
tumor uptake (LNCaP xenografts; 1 h after injection, unblocked, listed as 4): 6.3 ± 0.8 %ID/g
tumor uptake (LNCaP xenografts; 1 h after injection, unblocked, listed as [18F]4): 6.26 ± 0.82 %ID/g
tumor uptake (LNCaP xenografts; [3]): 0.18 ± 0.11 %ID/g
logD at 2 min [1]: -3.34 ± 0.02
SMILES: O=C(O)CC[C@H](NC(=O)N[C@@H](CCCCNC(=O)c1ccc(Cn2cc(C[n+]3ccc([B-](F)(F)F)cc3)nn2)nc1)C(=O)O)C(=O)O [^18F-4]
